# Assay results as given in PubChem BioAssay (NCI).
#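 Abbreviation: GI50, concentration required for 50% inhibition of growth. TGI: total growth inhibition.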
# Experiments:
# Assay in all cases: NCI-60 cell line screen, 384-well format
# [1] = tested on: 786-0 renal
# [2] = tested on: A549 NSCLC
# [3] = tested on: ACHN renal
# [4] = tested on: HCC-2998 colon
# [5] = tested on: HCT-116 colon
# [6] = tested on: M14 melanoma
# [7] = tested on: MALME-3M melanoma
# [8] = tested on: MCF7 breast
# [9] = tested on: NCI-H226 lung
# [10] = tested on: RPMI-8226 leukemia
# [11] = tested on: SK-MEL-28 melanoma
# [12] = tested on: SNB-75 CNS
# [13] = tested on: SW-620 colon
smiles,measurement,setting,value
Cc1cc(Nc2cc(N)ncn2)c(=O)n2c1C(=O)NC21CCCCC1,GI50,[1],> 100 µM
same,TGI,[1],> 100 µM
same,GI50,[2],> 100 µM
same,TGI,[2],> 100 µM
same,GI50,[3],> 100 µM
same,TGI,[3],> 100 µM
same,GI50,[4],> 100 µM
same,TGI,[4],> 100 µM
same,GI50,[5],> 100 µM
same,TGI,[5],> 100 µM
same,GI50,[6],> 100 µM
same,TGI,[6],> 100 µM
same,GI50,[7],> 100 µM
same,TGI,[7],> 100 µM
same,GI50,[8],> 100 µM
same,TGI,[8],> 100 µM
same,GI50,[9],> 100 µM
same,TGI,[9],> 100 µM
same,GI50,[10],> 62.6 µM
same,TGI,[10],> 100 µM
same,GI50,[11],> 100 µM
same,TGI,[11],> 100 µM
same,GI50,[12],> 100 µM
same,TGI,[12],> 100 µM
same,GI50,[13],> 100 µM
same,TGI,[13],> 100 µM
